Laboratory results published in BindingDB's records for doi:10.7270/Q2QN656Q (The Scripps Research Institute Molecular Screening Center, 2010).
Values joined by “and” are separate entries in the source; they are usually repeats but may differ in a detail not shown here. Identical values can stand only once.

Target: Serine/threonine-protein phosphatase PP1-alpha catalytic subunit (Homo sapiens, UniProt P62136)
Assay: inhibition of protein phosphatase 1 activity – biochemical, fluorescence, dose response (AID 2403)

Serine/threonine-protein phosphatase PP1-alpha catalytic subunit, sequence (P62136 whole entry): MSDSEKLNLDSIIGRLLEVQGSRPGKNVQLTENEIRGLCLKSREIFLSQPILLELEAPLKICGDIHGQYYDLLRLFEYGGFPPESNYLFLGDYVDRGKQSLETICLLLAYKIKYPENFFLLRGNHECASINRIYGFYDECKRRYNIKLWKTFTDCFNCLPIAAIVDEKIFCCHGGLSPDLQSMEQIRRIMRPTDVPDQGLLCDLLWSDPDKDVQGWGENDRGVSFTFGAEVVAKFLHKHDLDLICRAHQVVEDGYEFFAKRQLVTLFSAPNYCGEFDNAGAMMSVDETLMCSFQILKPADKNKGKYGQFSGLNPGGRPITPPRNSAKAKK

| SMILES | IC50 |
| --- | --- |
| CC1(C)Cc2c(nn(-c3ccccc3)c(=N)c2C#N)CO1 | 55.8 µM |
| O=C1OC(=O)[C@H]2[C@@H]1[C@@H]1CC[C@H]2O1 [(1R,2S,6R,7S)-4,10-Dioxa-tricyclo[5.2.1.0*2,6*]decane-3,5-dione] | 4.12 µM and 2.83 µM |
| COc1ccc(CN=Nc2cc(C)nc(-n3nc(C)cc3C)n2)c(OC)c1 [MLS000589396] | 6.68 µM |
| CCOC(=O)c1sc(N2C(=O)C(=O)C(C(=O)c3ccco3)C2c2cccc([N+](=O)[O-])c2)nc1C (stereo not given) [MLS001082998] | 11.8 µM |
| COc1ccc(CN=Nc2cc(C)nc(-n3nc(C)cc3C)n2)cc1 [SMR000212741] | 5.81 µM |
